The results in this text go back to patent US12157741B2, “Macrocyclic inhibitors of DYRK1A” (DANA-FARBER CANCER INSTITUTE, INC., priority 2018, dated 2024).

Where two headings read alike, the source gives them in different places.

Holding throughout (type): binding
Assay [1] addresses various enzymes (Homo sapiens, UniProt P08069). The note with it: compound 1 uM. The protocol: (§1) Ambit profiling was conducted in accordance with the manufacturer's instructions.
The target in assay [2] is various enzymes (Homo sapiens, UniProt P21709). The note with it: compound 1 uM. On the procedure:
as §1

For assay [3], the target named is various enzymes (Homo sapiens, UniProt Q9BVS4). The note with it: compound 1 uM. On the procedure:
as §1

Assay [4] addresses various enzymes (Homo sapiens, UniProt Q9C098). Conditions: compound 1 uM. The protocol:
as §1

In assay [5] the target is various enzymes (Homo sapiens, UniProt Q8WU08). Conditions: compound 1 uM. On the procedure: as §1
Chain of various enzymes (Homo sapiens, UniProt Q8WU08) (Q8WU08 whole entry): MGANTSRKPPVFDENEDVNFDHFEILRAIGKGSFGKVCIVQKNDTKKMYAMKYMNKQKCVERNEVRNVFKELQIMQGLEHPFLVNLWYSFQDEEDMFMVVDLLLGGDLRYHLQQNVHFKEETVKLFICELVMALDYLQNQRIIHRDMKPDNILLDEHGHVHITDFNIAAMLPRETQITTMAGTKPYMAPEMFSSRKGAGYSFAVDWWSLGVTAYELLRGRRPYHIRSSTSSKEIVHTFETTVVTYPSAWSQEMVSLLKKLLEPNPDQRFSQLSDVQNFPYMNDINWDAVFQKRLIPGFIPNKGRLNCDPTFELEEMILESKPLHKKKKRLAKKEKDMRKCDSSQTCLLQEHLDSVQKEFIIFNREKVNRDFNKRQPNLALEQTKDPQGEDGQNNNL
Assay [6] addresses various enzymes (Homo sapiens, UniProt Q05655). Conditions: compound 1 uM. The protocol:
as §1

Assay [7] concerns the target various enzymes (Homo sapiens, UniProt Q9Y3S1). Conditions: compound 1 uM. The protocol:
as §1

In assay [8] the target is various enzymes (Homo sapiens, UniProt P51451). The note with it: compound 1 uM. The protocol:
as §1

The target of assay [9] is various enzymes (Homo sapiens, UniProt P10721, D816H). On the procedure:
as §1

For assay [10], the target named is various enzymes (Homo sapiens, UniProt Q8IVW4). The note with it: compound 1 uM. The protocol:
as §1

For assay [11], the target named is T1, various enzymes (Homo sapiens, UniProt O43283).
T1 sequence (O43283 1-966): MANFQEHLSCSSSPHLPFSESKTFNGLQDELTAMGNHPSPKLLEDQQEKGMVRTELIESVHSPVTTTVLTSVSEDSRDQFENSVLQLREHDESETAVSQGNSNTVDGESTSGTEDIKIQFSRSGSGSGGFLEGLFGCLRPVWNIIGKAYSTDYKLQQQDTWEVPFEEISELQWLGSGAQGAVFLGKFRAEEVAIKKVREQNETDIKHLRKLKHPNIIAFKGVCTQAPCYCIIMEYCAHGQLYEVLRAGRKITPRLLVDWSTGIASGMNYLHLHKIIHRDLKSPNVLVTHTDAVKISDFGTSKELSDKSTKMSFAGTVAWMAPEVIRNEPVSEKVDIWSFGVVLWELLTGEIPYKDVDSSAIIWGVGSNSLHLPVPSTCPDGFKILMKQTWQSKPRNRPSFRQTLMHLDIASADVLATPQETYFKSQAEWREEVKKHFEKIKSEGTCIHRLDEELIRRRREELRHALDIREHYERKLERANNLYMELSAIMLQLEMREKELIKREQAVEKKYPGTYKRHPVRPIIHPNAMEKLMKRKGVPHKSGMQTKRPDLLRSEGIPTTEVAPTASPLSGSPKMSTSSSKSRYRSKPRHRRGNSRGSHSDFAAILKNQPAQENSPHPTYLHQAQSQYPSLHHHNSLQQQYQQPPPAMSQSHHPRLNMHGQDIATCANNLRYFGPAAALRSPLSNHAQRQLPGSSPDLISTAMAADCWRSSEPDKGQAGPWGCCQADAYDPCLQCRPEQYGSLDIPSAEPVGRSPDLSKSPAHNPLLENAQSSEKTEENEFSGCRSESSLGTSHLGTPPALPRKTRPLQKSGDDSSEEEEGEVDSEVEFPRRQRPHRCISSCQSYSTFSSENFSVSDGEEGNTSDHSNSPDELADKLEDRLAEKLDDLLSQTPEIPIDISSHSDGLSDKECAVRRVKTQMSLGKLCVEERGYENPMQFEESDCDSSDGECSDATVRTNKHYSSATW
Conditions: compound 1 uM. On the procedure:
as §1

Assay [12] has as its target various enzymes (Homo sapiens, UniProt O75914). The note with it: compound 1 uM. On the procedure:
as §1

Assay [13] deals with T2, various enzymes (Homo sapiens, UniProt Q12852).
T2 sequence (Q12852 1-859): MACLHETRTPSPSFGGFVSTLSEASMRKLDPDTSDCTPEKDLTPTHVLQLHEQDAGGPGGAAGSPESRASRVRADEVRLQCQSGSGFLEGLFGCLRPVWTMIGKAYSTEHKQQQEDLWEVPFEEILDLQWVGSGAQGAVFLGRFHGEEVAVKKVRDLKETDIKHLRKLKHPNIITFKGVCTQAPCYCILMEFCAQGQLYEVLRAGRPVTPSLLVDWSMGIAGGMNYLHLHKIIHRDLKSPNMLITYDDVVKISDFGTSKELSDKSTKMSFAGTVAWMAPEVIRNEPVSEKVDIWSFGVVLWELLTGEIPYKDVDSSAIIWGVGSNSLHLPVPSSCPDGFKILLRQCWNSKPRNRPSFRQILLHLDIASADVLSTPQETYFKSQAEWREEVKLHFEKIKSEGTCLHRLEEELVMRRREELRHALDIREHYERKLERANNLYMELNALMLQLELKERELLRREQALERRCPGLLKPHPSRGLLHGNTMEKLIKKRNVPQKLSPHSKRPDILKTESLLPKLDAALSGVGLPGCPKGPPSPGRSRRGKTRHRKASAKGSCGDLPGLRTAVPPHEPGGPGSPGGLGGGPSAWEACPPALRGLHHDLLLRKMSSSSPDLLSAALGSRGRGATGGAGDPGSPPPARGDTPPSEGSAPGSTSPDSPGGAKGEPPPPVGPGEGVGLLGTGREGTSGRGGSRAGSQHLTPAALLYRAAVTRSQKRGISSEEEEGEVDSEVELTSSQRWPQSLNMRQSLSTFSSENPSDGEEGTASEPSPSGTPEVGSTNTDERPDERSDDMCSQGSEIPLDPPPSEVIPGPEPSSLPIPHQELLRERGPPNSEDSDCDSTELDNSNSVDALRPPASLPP
The note with it: compound 1 uM. On the procedure:
as §1

Chain of various enzymes (Homo sapiens, UniProt Q9BVS4) (Q9BVS4 whole entry): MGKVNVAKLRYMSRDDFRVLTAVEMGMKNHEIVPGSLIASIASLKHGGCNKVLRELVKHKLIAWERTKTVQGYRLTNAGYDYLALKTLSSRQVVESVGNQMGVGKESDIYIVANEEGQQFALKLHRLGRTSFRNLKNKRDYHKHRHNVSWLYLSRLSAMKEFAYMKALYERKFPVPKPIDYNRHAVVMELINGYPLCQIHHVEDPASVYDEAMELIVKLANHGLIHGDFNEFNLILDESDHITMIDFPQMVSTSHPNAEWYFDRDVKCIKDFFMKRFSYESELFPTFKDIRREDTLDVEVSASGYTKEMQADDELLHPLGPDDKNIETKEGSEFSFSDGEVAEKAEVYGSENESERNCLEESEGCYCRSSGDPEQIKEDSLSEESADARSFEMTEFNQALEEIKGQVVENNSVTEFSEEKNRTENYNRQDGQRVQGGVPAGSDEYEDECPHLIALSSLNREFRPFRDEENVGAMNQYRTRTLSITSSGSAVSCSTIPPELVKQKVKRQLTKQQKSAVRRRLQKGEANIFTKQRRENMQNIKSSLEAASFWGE
Chain of various enzymes (Homo sapiens, UniProt Q8IVW4) (Q8IVW4 whole entry): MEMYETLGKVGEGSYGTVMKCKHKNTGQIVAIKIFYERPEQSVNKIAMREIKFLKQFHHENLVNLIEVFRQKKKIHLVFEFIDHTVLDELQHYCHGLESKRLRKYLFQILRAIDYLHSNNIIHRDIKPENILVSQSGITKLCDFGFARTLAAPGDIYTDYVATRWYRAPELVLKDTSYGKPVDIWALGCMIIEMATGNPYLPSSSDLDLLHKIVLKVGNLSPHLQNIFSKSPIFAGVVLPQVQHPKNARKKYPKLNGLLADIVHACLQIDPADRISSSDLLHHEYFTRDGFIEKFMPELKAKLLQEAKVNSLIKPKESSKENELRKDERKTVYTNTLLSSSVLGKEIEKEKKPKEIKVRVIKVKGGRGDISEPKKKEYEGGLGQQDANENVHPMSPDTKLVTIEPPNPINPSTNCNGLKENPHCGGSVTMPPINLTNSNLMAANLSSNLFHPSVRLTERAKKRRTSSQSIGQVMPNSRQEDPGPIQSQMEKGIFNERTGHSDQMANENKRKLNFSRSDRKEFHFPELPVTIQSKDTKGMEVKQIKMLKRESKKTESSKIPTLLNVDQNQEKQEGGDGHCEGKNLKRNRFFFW
Chain of various enzymes (Homo sapiens, UniProt Q9C098) (Q9C098 whole entry): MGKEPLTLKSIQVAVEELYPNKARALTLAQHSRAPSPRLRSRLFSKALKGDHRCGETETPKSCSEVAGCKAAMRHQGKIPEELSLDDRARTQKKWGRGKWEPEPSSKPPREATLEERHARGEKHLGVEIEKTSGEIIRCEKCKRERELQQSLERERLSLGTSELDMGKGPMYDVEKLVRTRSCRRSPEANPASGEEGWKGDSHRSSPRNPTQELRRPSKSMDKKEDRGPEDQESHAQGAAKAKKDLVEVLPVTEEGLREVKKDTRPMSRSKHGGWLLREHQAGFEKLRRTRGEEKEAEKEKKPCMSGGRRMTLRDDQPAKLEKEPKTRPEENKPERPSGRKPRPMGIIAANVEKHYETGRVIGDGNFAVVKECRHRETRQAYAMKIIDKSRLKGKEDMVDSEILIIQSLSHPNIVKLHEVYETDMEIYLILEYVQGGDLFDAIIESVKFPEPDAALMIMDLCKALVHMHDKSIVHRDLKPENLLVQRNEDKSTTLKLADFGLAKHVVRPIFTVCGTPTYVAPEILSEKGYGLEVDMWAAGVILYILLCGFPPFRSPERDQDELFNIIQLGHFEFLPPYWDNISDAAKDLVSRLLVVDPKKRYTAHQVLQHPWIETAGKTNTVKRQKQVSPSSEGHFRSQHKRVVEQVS
Chain of various enzymes (Homo sapiens, UniProt O75914) (O75914 whole entry): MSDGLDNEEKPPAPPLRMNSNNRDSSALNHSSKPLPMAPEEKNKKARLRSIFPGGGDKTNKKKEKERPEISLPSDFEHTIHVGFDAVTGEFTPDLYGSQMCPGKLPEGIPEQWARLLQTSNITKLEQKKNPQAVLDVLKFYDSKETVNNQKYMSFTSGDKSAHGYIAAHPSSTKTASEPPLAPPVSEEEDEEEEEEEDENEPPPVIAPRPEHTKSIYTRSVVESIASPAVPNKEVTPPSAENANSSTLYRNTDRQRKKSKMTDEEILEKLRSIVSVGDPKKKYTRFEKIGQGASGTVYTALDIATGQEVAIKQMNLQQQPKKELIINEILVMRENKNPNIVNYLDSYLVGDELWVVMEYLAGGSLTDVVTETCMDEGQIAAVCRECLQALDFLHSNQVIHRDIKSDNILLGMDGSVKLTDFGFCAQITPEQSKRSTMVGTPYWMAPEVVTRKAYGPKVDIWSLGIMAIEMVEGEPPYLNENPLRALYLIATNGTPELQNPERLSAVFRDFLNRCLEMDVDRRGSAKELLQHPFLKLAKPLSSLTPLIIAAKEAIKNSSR
Chain of various enzymes (Homo sapiens, UniProt P08069) (P08069 31-1367): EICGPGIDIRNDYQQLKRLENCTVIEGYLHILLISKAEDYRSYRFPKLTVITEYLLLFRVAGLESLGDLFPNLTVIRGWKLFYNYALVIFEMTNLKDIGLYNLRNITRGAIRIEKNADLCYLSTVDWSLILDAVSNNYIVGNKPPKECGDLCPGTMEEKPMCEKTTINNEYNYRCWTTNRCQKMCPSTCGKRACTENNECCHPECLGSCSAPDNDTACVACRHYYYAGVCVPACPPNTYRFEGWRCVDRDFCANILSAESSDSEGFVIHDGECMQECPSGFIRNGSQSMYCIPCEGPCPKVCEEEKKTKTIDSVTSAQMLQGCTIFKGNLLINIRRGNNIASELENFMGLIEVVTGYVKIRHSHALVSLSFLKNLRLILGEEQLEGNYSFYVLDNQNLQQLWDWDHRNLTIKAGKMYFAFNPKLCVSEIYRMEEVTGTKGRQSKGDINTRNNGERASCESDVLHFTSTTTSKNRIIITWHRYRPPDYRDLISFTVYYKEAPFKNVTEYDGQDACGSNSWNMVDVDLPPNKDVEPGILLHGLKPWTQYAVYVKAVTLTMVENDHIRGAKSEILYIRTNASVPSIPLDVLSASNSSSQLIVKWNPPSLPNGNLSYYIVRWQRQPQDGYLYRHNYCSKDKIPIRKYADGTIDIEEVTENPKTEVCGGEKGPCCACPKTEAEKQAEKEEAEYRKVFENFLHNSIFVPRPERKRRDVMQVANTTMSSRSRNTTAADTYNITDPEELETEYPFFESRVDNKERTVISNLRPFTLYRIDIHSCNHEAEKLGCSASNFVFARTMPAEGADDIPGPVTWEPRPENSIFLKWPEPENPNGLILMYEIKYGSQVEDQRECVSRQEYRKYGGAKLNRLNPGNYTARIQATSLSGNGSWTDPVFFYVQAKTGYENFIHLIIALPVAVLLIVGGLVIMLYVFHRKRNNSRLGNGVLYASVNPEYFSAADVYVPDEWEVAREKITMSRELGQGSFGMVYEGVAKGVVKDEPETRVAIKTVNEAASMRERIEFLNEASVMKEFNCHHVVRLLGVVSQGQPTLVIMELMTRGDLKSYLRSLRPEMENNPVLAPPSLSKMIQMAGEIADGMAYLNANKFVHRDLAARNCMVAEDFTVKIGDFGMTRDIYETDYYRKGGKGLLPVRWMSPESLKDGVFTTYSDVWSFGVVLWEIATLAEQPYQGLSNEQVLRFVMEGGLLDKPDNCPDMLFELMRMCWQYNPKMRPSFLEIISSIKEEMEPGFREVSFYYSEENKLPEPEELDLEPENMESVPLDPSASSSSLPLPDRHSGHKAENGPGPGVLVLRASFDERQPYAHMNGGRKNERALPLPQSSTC
Chain of various enzymes (Homo sapiens, UniProt P21709) (P21709 26-976): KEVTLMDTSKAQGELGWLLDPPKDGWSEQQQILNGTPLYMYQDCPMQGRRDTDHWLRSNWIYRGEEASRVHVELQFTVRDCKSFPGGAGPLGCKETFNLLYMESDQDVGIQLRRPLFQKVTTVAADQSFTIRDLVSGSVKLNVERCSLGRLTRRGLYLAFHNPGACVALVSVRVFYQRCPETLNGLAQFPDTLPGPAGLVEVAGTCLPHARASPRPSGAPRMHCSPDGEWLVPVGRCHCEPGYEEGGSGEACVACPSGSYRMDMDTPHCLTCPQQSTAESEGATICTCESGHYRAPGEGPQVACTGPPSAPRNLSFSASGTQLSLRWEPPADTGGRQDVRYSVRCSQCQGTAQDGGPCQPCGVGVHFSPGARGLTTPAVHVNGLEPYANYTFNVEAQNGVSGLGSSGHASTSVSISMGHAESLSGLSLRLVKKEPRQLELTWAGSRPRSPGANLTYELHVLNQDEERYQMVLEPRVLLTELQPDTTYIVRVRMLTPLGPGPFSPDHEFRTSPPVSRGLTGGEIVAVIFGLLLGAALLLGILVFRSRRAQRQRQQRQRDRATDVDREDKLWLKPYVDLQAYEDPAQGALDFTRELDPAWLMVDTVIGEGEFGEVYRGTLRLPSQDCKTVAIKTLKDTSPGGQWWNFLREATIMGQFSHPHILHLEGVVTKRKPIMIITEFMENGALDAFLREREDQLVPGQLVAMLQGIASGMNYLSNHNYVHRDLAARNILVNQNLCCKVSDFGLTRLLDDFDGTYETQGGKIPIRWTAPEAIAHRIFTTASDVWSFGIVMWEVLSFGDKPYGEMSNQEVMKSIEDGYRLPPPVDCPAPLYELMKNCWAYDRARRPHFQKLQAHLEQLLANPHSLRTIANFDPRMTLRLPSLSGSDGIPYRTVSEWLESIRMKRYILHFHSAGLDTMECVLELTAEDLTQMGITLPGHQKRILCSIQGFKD

Consider `COc1c2c(nn1C)CN(C(C)C)C(=O)CCCn1cc(c(C(F)(F)F)n1)-c1c[nH]c3ncc-2cc13` [Compound 50, (Z)-5-isopropyl-35-methoxy-31-methyl-13-(trifluoromethyl)-11H,21H,31H-5-aza-2(3,5)-pyrrolo[2,3-b]pyridina-1(4,1),3(4,3)-dipyrazolacyclononaphan-6-one], for which, at various enzymes [1], the “Ambit profiling: IGF1R” value turned out to be 69. In addition, the “Ambit profiling: EPHA1” value on various enzymes [2] is 29. Besides, on various enzymes [3], the “Ambit profiling: RIOK2” value was found to be 64. Further, the “Ambit profiling: DCAMKL3” value at various enzymes [4] is 56. Besides, on various enzymes [5], the “Ambit profiling: YANK1” value is 24. The “Ambit profiling: PRKCD” value at various enzymes [6] is on record as 43. Also, the “Ambit profiling: WNK2” value at various enzymes [7] was 46. The “Ambit profiling: BLK” value at various enzymes [8] is listed as 1.6. The “Ambit profiling: KIT(D816H)” value at various enzymes [9] came to 4.5. Moreover, on various enzymes [10], the “Ambit profiling: CDKL3” value came out at 80. Besides, on various enzymes [11], the “Ambit profiling: LZK” value is on record as 68. In addition, the “Ambit profiling: PAK3” value at various enzymes [12] stood at 24. Also, the “Ambit profiling: DLK” value on various enzymes [13] was 25.
On to `CC(C)N1Cc2nn(C)cc2-c2cnc3[nH]cc(c3c2)-c2cn(nc2C(F)(F)F)CCCC1=O` [Compound 45, (Z)-5-isopropyl-31-methyl-13-(trifluoromethyl)-11H,21H,31H-5-aza-2(3,5)-pyrrolo[2,3-b]pyridina-1(4,1),3(4,3)-dipyrazolacyclononaphan-6-one], for which the “Ambit profiling: IGF1R” value on various enzymes [1] turned out to be 86. The “Ambit profiling: EPHA1” value at various enzymes [2] was determined as 26. In addition, the “Ambit profiling: RIOK2” value on various enzymes [3] is reported as 74. Further, the “Ambit profiling: DCAMKL3” value at various enzymes [4] is listed as 19. In addition, the “Ambit profiling: YANK1” value on various enzymes [5] was 100. For the same molecule, on various enzymes [6], the “Ambit profiling: PRKCD” value is reported as 71. The “Ambit profiling: WNK2” value on various enzymes [7] stood at 64. The “Ambit profiling: BLK” value on various enzymes [8] came out at 3.7. At various enzymes [9] (compound 1 uM), the “Ambit profiling: KIT(D816H)” value stood at 35. In addition, the “Ambit profiling: CDKL3” value at various enzymes [10] was determined as 100. The “Ambit profiling: LZK” value on various enzymes [11] amounted to 42. The “Ambit profiling: PAK3” value at various enzymes [12] is 12. Besides, on various enzymes [13], the “Ambit profiling: DLK” value is recorded as 32.
